Legend:
[1] = molecular target: recombinant His-tag Wip1 full length protein (amino acids #1-605) (Homo sapiens (Human), UniProt O15297); assay: Wip1 full length phosphatase enzyme FDP assay; assay type: biochemical; conditions: fluorescein diphosphate (FDP) substrate, RT 2 hours, fluorescence Ex485/Em535
[2] = molecular target: recombinant His-tag Wip1(2-420) protein (amino acids #2-420) (Homo sapiens (Human), UniProt O15297); assay: Wip1(2-420) phosphatase enzyme FDP assay; assay type: biochemical; conditions: fluorescein diphosphate (FDP) substrate, RT 2 hours, fluorescence Ex485/Em535; read-out: WIP1 (Truncated 2-420) FDP Assay: IC50
Chain of recombinant His-tag Wip1(2-420) protein (amino acids #2-420) (O15297 2-420): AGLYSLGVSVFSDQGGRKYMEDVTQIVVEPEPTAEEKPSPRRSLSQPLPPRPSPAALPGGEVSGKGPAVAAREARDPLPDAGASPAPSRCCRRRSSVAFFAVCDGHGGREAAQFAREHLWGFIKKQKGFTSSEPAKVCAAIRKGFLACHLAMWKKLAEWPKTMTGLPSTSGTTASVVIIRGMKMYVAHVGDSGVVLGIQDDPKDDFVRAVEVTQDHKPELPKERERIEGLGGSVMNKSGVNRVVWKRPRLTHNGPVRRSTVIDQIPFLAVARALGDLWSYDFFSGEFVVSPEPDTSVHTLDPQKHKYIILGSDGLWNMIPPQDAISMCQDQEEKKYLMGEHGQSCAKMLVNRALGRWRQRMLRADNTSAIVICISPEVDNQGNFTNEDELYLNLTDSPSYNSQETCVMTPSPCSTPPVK

Chain of recombinant His-tag Wip1 full length protein (amino acids #1-605) (O15297 whole entry, the tested form may be a part): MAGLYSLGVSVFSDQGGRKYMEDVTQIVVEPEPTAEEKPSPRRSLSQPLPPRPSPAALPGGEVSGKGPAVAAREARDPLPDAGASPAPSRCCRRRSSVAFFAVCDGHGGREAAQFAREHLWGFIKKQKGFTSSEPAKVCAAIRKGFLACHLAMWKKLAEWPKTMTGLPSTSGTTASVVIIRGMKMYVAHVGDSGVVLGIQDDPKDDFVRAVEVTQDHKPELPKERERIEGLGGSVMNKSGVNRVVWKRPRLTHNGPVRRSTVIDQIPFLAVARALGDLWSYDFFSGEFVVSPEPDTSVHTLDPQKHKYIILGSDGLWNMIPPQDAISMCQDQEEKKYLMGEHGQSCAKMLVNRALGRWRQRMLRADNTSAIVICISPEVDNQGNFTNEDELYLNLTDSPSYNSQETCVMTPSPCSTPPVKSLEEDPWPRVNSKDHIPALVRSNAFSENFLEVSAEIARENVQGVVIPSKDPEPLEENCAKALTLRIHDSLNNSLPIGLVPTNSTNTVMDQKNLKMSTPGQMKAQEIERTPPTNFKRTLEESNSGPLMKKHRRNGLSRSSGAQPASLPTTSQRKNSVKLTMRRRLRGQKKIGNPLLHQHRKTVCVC

SMILES	IC50 [1]	IC50 [2]
Cc1ncc(Cl)cc1N[C@@H](C)c1ccc(C(=O)N[C@@H](CC2CCCC2)C(=O)NC2CCS(=O)(=O)CC2)s1 [Compound 58, (2S)-2-({5-[(1S)-1-[(5-chloro-2-methylpyridin-3-yl)amino]ethyl]thiophen-2-yl}formamido)-3-cyclopentyl-N-(1,1-dioxo-1λ^6-thian-4-yl)propanamide]	12 nM	9 nM
COCCOc1ccc(NC(=O)[C@H](CC2CCCC2)NC(=O)c2ccc([C@H](C)Nc3cc(Cl)cnc3C)s2)cc1 [Compound 59, (2S)-2-({5-[(1S)-1-[(5-chloro-2-methylpyridin-3-yl)amino]ethyl]thiophen-2-yl}formamido)-3-cyclopentyl-N-[4-(2-methoxyethoxy)phenyl]propanamide]	7 nM	5 nM
Cc1cc(NC(=O)[C@H](CC2CCCC2)NC(=O)c2ccc([C@H](C)Nc3cc(Cl)cnc3C)s2)cc(C)n1 [Compound 62, (2S)-2-({5-[(1S)-1-[(5-chloro-2-methylpyridin-3-yl)amino]ethyl]thiophen-2-yl}formamido)-3-cyclopentyl-N-(2,6-dimethylpyridin-4-yl)propanamide]	10 nM	6 nM
Cc1ncc(Cl)cc1N[C@@H](C)c1ccc(C(=O)N[C@@H](CC2CCCC2)C(=O)NC2CC3CCC(C2)O3)s1 (stereo partly drawn) [Compound 63, (2S)-2-({5-[(1S)-1-[(5-chloro-2-methylpyridin-3-yl)amino]ethyl]thiophen-2-yl}formamido)-3-cyclopentyl-N-{8-oxabicyclo[3.2.1]octan-3-yl}propanamide]	22 nM	15 nM
CC[C@H](Nc1cc(Cl)cnc1C)c1ccc(C(=O)N[C@@H](CC2CCCC2)C(=O)NC23CC(C2)C3)s1 [Compound 68, (2S)-N-{bicyclo[1.1.1]pentan-1-yl}-2-({5-[(1S)-1-[(5-chloro-2-methylpyridin-3-yl)amino]propyl]thiophen-2-yl}formamido)-3-cyclopentylpropanamide]	8 nM	6 nM
COc1cc(NC(=O)[C@H](CC2CCCC2)NC(=O)c2ccc([C@H](C)Nc3cc(Cl)cnc3C)s2)ccc1F [Compound 69, (2S)-2-({5-[(1S)-1-[(5-chloro-2-methylpyridin-3-yl)amino]ethyl]thiophen-2-yl}formamido)-3-cyclopentyl-N-(4-fluoro-3-methoxyphenyl)propanamide]	7 nM	4 nM
C[C@H](Nc1cc(Cl)cnc1C1CC1)c1ccc(C(=O)N[C@@H](CC2CCCC2)C(=O)NC2CC2)s1 [Compound 70, (2S)-2-({5-[(1S)-1-[(5-chloro-2-cyclopropylpyridin-3-yl)amino]ethyl]thiophen-2-yl}formamido)-3-cyclopentyl-N-cyclopropylpropanamide]	8 nM	6 nM
C[C@@H](Nc1cc(Cl)cnc1C1CC1)c1ccc(C(=O)N[C@@H](CC2CCCC2)C(=O)NC2CC2)s1 [Compound 71, (2S)-2-({5-[(1R)-1-[(5-chloro-2-cyclopropylpyridin-3-yl)amino]ethyl]thiophen-2-yl}formamido)-3-cyclopentyl-N-cyclopropylpropanamide]	215 nM	127 nM
Cc1ncc(Cl)cc1N[C@@H](C)c1ccc(C(=O)N[C@@H](CC23CC(C2)C3)C(=O)NC2CC2)s1 [Compound 72, (2S)-3-{bicyclo[1.1.1]pentan-1-yl}-2-({5-[(1S)-1-[(5-chloro-2-methylpyridin-3-yl)amino]ethyl]thiophen-2-yl}formamido)-N-cyclopropylpropanamide]	136 nM	103 nM
Cc1cc(NC(=O)[C@H](CC2CCCC2)NC(=O)c2ccc([C@H](C)Nc3cc(Cl)cnc3C)s2)ccn1 [Compound 73, (2S)-2-({5-[(1S)-1-[(5-chloro-2-methylpyridin-3-yl)amino]ethyl]thiophen-2-yl}formamido)-3-cyclopentyl-N-(2-methylpyridin-4-yl)propanamide]	8 nM	4 nM
Cc1ncc(Cl)cc1N[C@@H](C)c1ccc(C(=O)N[C@@H](CC2CCCC2)C(=O)NC2CC(C)C2)s1 (stereo partly drawn) [Compound 76, (2S)-2-({5-[(1S)-1-[(5-chloro-2-methylpyridin-3-yl)amino]ethyl]thiophen-2-yl}formamido)-3-cyclopentyl-N-(3-methylcyclobutyl)propanamide]	9 nM	7 nM
Cc1ncc(Cl)cc1NC(C)c1ccc(C(=O)N[C@@H](CC2CCCC2)C(=O)NC23CC(C2)C3)s1 (stereo partly shown) [Compound 117]	70 nM	41 nM
Cc1cc(NC(=O)[C@H](CC2CCCC2)NC(=O)c2cnc([C@@H](C)Nc3cccc(Cl)c3)s2)cc(C)n1 [Compound 118, (2S)-2-({2-[(1R)-1-[(3-chlorophenyl)amino]ethyl]-1,3-thiazol-5-yl}formamido)-3-cyclopentyl-N-(2,6-dimethylpyridin-4-yl)propanamide]	196 nM	135 nM
Cc1cc(NC(=O)[C@H](CC2CCCC2)NC(=O)c2cnc([C@H](C)Nc3cccc(Cl)c3)s2)ccn1 [Compound 119, (2S)-2-({2-[(1S)-1-[(3-chlorophenyl)amino]ethyl]-1,3-thiazol-5-yl}formamido)-3-cyclopentyl-N-(2-methylpyridin-4-yl)propanamide]	115 nM	70 nM
Cc1cc(NC(=O)[C@H](CC2CCCC2)NC(=O)c2cnc([C@@H](C)Nc3cccc(Cl)c3)s2)ccn1 [Compound 120, (2S)-2-({2-[(1R)-1-[(3-chlorophenyl)amino]ethyl]-1,3-thiazol-5-yl}formamido)-3-cyclopentyl-N-(2-methylpyridin-4-yl)propanamide]	11 nM	7 nM
Cc1cc(NC(=O)[C@H](CC2CCCC2)NC(=O)c2cnc(C(C)Nc3cccc(Cl)c3)s2)ccn1 (stereo partly drawn) [Compound 121, (2S)-2-[(2-{1-[(3-chlorophenyl)amino]ethyl}-1,3-thiazol-5-yl)formamido]-3-cyclopentyl-N-(2-methylpyridin-4-yl)propanamide]	19 nM	66 nM
Cc1cc(NC(=O)[C@H](CC2CCCC2)NC(=O)c2cnc(C(C)Nc3cccc(Cl)c3)s2)cc(C)n1 (stereo partly drawn) [Compound 122, (2S)-2-[(2-{1-[(3-chlorophenyl)amino]ethyl}-1,3-thiazol-5-yl)formamido]-3-cyclopentyl-N-(2,6-dimethylpyridin-4-yl)propanamide]	62 nM	130 nM
CC(Nc1cccc(Cl)c1)c1ncc(C(=O)N[C@@H](CC2CCCC2)C(=O)NC2CC2)s1 (stereo partly drawn) [Compound 123, (2S)-2-[(2-{1-[(3-chlorophenyl)amino]ethyl}-1,3-thiazol-5-yl)formamido]-3-cyclopentyl-N-cyclopropylpropanamide]	39 nM	159 nM

Second part, the compound after the results:

IC50 [1]	IC50 [2]	SMILES
7 nM	6 nM	COc1ncc(Cl)cc1N[C@@H](C)c1ccc(C(=O)N[C@@H](CC2CCCC2)C(=O)NC23CC(C2)C3)s1 [Compound 60, (2S)-N-{bicyclo[1.1.1]pentan-1-yl}-2-({5-[(1S)-1-[(5-chloro-2-methoxypyridin-3-yl)amino]ethyl]thiophen-2-yl}formamido)-3-cyclopentylpropanamide]
10 nM	8 nM	Cc1ncc(Cl)cc1N[C@@H](C)c1ccc(C(=O)N[C@@H](CC2CCCC2)C(=O)NC(C)(C)C#N)s1 [Compound 65, (2S)-2-({5-[(1S)-1-[(5-chloro-2-methylpyridin-3-yl)amino]ethyl]thiophen-2-yl}formamido)-N-(1-cyano-1-methylethyl)-3-cyclopentylpropanamide]
27 nM	21 nM	CNC(=O)[C@H](CC1CCCC1)NC(=O)c1ccc([C@H](C)Nc2cc(Cl)cnc2C)s1 [Compound 74, (2S)-2-({5-[(1S)-1-[(5-chloro-2-methylpyridin-3-yl)amino]ethyl]thiophen-2-yl}formamido)-3-cyclopentyl-N-methylpropanamide]
10 nM	6 nM	CCNC(=O)[C@H](CC1CCCC1)NC(=O)c1ccc([C@H](C)Nc2cc(Cl)cnc2C)s1 [Compound 77, (2S)-2-({5-[(1S)-1-[(5-chloro-2-methylpyridin-3-yl)amino]ethyl]thiophen-2-yl}formamido)-3-cyclopentyl-N-ethylpropanamide]
7 nM	6 nM	CCc1ncc(Cl)cc1N[C@@H](C)c1ccc(C(=O)N[C@@H](CC2CCCC2)C(=O)NC2CC2)s1 [Compound 78, (2S)-2-({5-[(1S)-1-[(5-chloro-2-ethylpyridin-3-yl)amino]ethyl]thiophen-2-yl}formamido)-3-cyclopentyl-N-cyclopropylpropanamide]
308 nM	223 nM	CCc1ncc(Cl)cc1N[C@H](C)c1ccc(C(=O)N[C@@H](CC2CCCC2)C(=O)NC2CC2)s1 [Compound 79, (2S)-2-({5-[(1R)-1-[(5-chloro-2-ethylpyridin-3-yl)amino]ethyl]thiophen-2-yl}formamido)-3-cyclopentyl-N-cyclopropylpropanamide]
18 nM	10 nM	CC[C@H](Nc1cc(Cl)cnc1C)c1ccc(C(=O)N[C@@H](CC2CCCC2)C(=O)NC23CC(C#N)(C2)C3)s1 [Compound 80, (2S)-2-({5-[(1S)-1-[(5-chloro-2-methylpyridin-3-yl)amino]propyl]thiophen-2-yl}formamido)-N-{3-cyanobicyclo[1.1.1]pentan-1-yl}-3-cyclopentylpropanamide]
20 nM	13 nM	COc1ncc(Cl)cc1N[C@@H](C)c1ccc(C(=O)N[C@@H](CC2CCCC2)C(=O)NC23CC(C#N)(C2)C3)s1 [Compound 82, (2S)-2-({5-[(1S)-1-[(5-chloro-2-methoxypyridin-3-yl)amino]ethyl]thiophen-2-yl}formamido)-N-{3-cyanobicyclo[1.1.1]pentan-1-yl}-3-cyclopentylpropanamide]

Source: US20240116910A1, “Heterocycles as WIP1 Inhibitors” (PMV Pharmaceuticals, Inc., priority 2022, published 2024)
